The subject of this test is Trichophyton rubrum (ATCC-28188). Description: Checkerboard assay of fatty acid/ester with antifungals on Trichophyton rubrum (ATCC 28188). The class given is cell-based. Details: key to FIC index: FIC index = sum of FICs; FIC = agent conc in well / agent MIC. Conditions: for Agent MIC: agent alone; for MIC: Trichophyton rubrum, ATCC28188, agent alone. Here is the method:
The synergy is measured by determining the fractional inhibitory concentration (FIC) value of the combination. This experimental set up, called checkerboard method, allows measurement of a desired effect (inhibition of fungal growth in this case) at different combinations of various concentrations of the two agents (antifungal agent and fatty acid/ester). […] No agent is added to the penultimate column on the right and the bottom row. The final column on the right is used for growth control (only inoculum in broth) and sterility control (broth alone, no inoculum). […] FIC value for each agent in a particular well of the checkerboard layout was calculated by dividing the agent concentration in that well by the established MIC value of the agent against the test organism (Hsieh et al., Synergy assessed by checkerboard: A critical Analysis, Diagn. Microbiol. Infect Dis. (1993) 16:343-349). FIC values for both agents in a particular well were calculated in this way followed by determination of the FIC index (sum of the FICs of each drug in the concerned well). […] Agents Chemother. (2010) 54(2): 602-609].
Using the checkerboard layout experimental setup described above (FIG. 1A), various medium-chain fatty acids were tested for their ability to potentiate the activity of a known antifungal agent. Concentrations above and below the MIC of each test agent were tested using serial dilution. The same procedure was expanded to test combinations of various medium-chain fatty acids C-1 to C-14 (such caprylic acid, undecylenic acid and lauric acid) and esters thereof, with antifungal agents from various classes including azoles, allylamines, benzylamines, zinc pyrithione and piroctone olamine against both susceptible and resistant Trichophyton spp. (filamentous fungus) and Candida spp. (yeast).
Potentiation of the activity of antimycotic agents using ester derivatives of medium chain fatty acids was tested in a standard, well accepted in vitro assay system to check for synergy. This experimental set up, called checkerboard method, allows measurement of a desired effect (inhibition of fungal growth in this case) at different combinations of various concentrations of two agents. A chosen medium chain fatty acid (C-1 to C-14) or its ester derivative was tested for its ability to potentiate the activity of a known antifungal agent (various classes) using the checkerboard layout. Various concentrations above and below the MIC of each test agent were tested using serial dilution in Sabouraud dextrose broth. […] FIC value for a drug in a particular well of the checkerboard layout is calculated by dividing the drug concentration in that well by the established MIC value of the drug against the test organism (Hsieh et al., Synergy assessed by checkerboard: A critical Analysis, Diagn. Microbiol. Infect Dis. (1993) 16:343-349). FIC values for both test agents in a particular well are calculated in this way followed by determination of the FIC index (sum of the FICs of each drug in the concerned well).

Where [1] appears, read: Table 2, propylene glycol monocaprylate series.
The mark [2] stands for this setting: Table 4, undecylenic acid (C11) series.
Setting [3] is: Table 6, propylene glycol monolaurate series.
[4] abbreviates: agent's MIC in combination antifungal + propylene glycol monocaprylate (partner: other agent of same combination no.).
The mark [5] stands for this setting: agent's MIC in combination antifungal + propylene glycol monolaurate (partner: other agent of same combination no.).
[6] abbreviates: agent's MIC in combination antifungal + undecylenic acid (partner: other agent of same combination no.).
The mark [7] stands for this setting: antifungal in combination with lauric acid.
[8] abbreviates: antifungal in combination with propylene glycol monocaprylate.
[9] abbreviates: antifungal in combination with propylene glycol monolaurate.
[10] abbreviates: antifungal in combination with undecylenic acid.
Where [11] appears, read: combination antifungal + propylene glycol monocaprylate.
Where [12] appears, read: combination antifungal + propylene glycol monolaurate.
Where [13] appears, read: combination antifungal + undecylenic acid.
The mark [14] stands for this setting: Table 3, glyceryl monocaprylate series.
Where [15] appears, read: agent's MIC in combination antifungal + caprylic acid (partner: other agent of same combination no.).
The mark [16] stands for this setting: agent's MIC in combination antifungal + glyceryl monocaprylate (partner: other agent of same combination no.).
Setting [17] is: antifungal in combination with caprylic acid.
Where [18] appears, read: antifungal in combination with glyceryl monocaprylate.
The mark [19] stands for this setting: combination antifungal + caprylic acid.
Where [20] appears, read: combination antifungal + glyceryl monocaprylate.

Consider `C[C@@H]1[C@H](O)[C@@H](C)/C=C/C=C/C=C/C=C/C=C/C=C/C=C/[C@H](O[C@@H]2O[C@H](C)[C@@H](O)[C@H](N)[C@@H]2O)C[C@@H]2O[C@](O)(C[C@@H](O)C[C@@H](O)[C@H](O)CC[C@@H](O)C[C@@H](O)CC(=O)O[C@H]1C)C[C@H](O)[C@H]2C(=O)O` [Amphotericin B], for which the “Agent MIC” value runs as follows: under setting [1], 0.5 µg/mL; under setting [2], 0.5 µg/mL; (Table 5, lauric acid (C12) series) 0.5 µg/mL; under setting [3], 0.5 µg/mL. The “Combination MIC” value by setting is: (agent's MIC in combination antifungal + lauric acid (partner: other agent of same combination no.)) 0.125 µg/mL; under setting [4], 0.125 µg/mL; under setting [5], 0.125 µg/mL; under setting [6], 0.06 µg/mL. For the same compound, the FIC index under setting [7] turned out to be 0.75, the FIC index under setting [8] worked out at 0.5, the FIC index under setting [9] is given as 0.5 and the FIC index under setting [10] was 0.62. Further, the Interaction entry was “Synergistic (Combinations that gave FIC indices less than 1 were designated “synergistic”)” under setting [7], “Synergistic (Combinations that gave FIC indices less than 1 were designated “synergistic”)” under setting [8], “Synergistic (Combinations that gave FIC indices less than 1 were designated “synergistic”)” under setting [9] and “Synergistic (Combinations that gave FIC indices less than 1 were designated “synergistic”)” under setting [10]. Also, the FIC is reported as 0.25 (combination antifungal + lauric acid), 0.25 under setting [11], 0.25 under setting [12] and 0.12 under setting [13].
Take `CC[C@H](C)C[C@H](C)CCCCCCCCC(=O)N[C@H]1C[C@@H](O)[C@@H](NCCN)NC(=O)[C@@H]2[C@@H](O)CCN2C(=O)[C@H]([C@H](O)CCN)NC(=O)[C@H]([C@H](O)[C@@H](O)c2ccc(O)cc2)NC(=O)[C@@H]2C[C@@H](O)CN2C(=O)[C@H]([C@@H](C)O)NC1=O` [Caspofungin]: the MIC (in general, the least concentration at which growth counts as inhibited) is, setting by setting: (Table 1, caprylic acid series) 64 µg/mL; under setting [1], 64 µg/mL; under setting [14], 64 µg/mL; under setting [2], 64 µg/mL; under setting [3], 64 µg/mL. Further, the “Combination MIC” value reads like this: under setting [15], 16 µg/mL; under setting [16], 2 µg/mL; under setting [4], 0.125 µg/mL; under setting [5], 0.125 µg/mL; under setting [6], 16 µg/mL. Also, the FIC index runs as follows: under setting [17], 0.75; under setting [18], 0.531; under setting [8], 0.252; under setting [9], 0.502; under setting [10], 0.5. Moreover, the Interaction entry is given as “Synergistic (Combinations that gave FIC indices less than 1 were designated “synergistic”)” under setting [17]; “Synergistic (Combinations that gave FIC indices less than 1 were designated “synergistic”)” under setting [18]; “Synergistic (Combinations that gave FIC indices less than 1 were designated “synergistic”)” under setting [8]; “Synergistic (Combinations that gave FIC indices less than 1 were designated “synergistic”)” under setting [9]; “Synergistic (Combinations that gave FIC indices less than 1 were designated “synergistic”)” under setting [10]. The FIC runs as follows: under setting [19], 0.25; under setting [20], 0.031; under setting [11], 0.002; under setting [12], 0.002; under setting [13], 0.25.
As for `Cc1cc(C2CCCCC2)n(O)c(=O)c1` [Ciclopirox], the MIC reads like this: (Table 1, caprylic acid series) 2 µg/mL; under setting [1], 2 µg/mL; under setting [14], 2 µg/mL. Also, the “Combination MIC” value is 0.5 µg/mL under setting [15], 0.03 µg/mL under setting [16] and 0.06 µg/mL under setting [4]. In addition, the FIC index is 0.75 under setting [17], 0.501 under setting [18] and 0.503 under setting [8]. Also, the Interaction entry under setting [17] is “Synergistic (Combinations that gave FIC indices less than 1 were designated “synergistic”)”, the Interaction result under setting [18] is on record as “Synergistic (Combinations that gave FIC indices less than 1 were designated “synergistic”)” and the Interaction result under setting [8] is “Synergistic (Combinations that gave FIC indices less than 1 were designated “synergistic”)”. Also, the FIC is listed as 0.25 under setting [19], 0.015 under setting [20] and 0.03 under setting [11].
In the case of `Cc1cc(CC(C)CC(C)(C)C)n(O)c(=O)c1.NCCO` (stereo not shown) [Piroctone olamine], the “Agent MIC” value reads like this: (Table 1, caprylic acid series) 4 µg/mL; under setting [1], 2.5 µg/mL; under setting [14], 4 µg/mL. Besides, the “Combination MIC” value is 2 µg/mL under setting [15] and 2 µg/mL under setting [16]. The FIC index was 0.75 under setting [17] and 0.562 under setting [18]. Besides, the Interaction result under setting [17] is given as “Synergistic (Combinations that gave FIC indices less than 1 were designated “synergistic”)”, the Interaction result under setting [18] is listed as “Synergistic (Combinations that gave FIC indices less than 1 were designated “synergistic”)” and the Interaction result under setting [8] was “Synergistic (Combinations that gave FIC indices less than 1 were designated “synergistic”)”. For the same compound, the FIC under setting [19] was found to be 0.5 and the FIC under setting [20] is 0.5.
Regarding Zinc pyrithione, the “Agent MIC” value turned out to be 3.125 µg/mL (Table 1, caprylic acid series); 3.125 µg/mL under setting [1]; 3.125 µg/mL under setting [14]. Also, the “Combination MIC” value runs as follows: under setting [15], 0.195 µg/mL; under setting [16], 0.195 µg/mL. Also, the FIC index under setting [17] is listed as 0.19, the FIC index under setting [18] came out at 0.3125 and the FIC index under setting [8] was found to be 0.75. For the same compound, the Interaction result reads like this: under setting [17], “Synergistic (Combinations that gave FIC indices less than 1 were designated “synergistic”)”; under setting [18], “Synergistic (Combinations that gave FIC indices less than 1 were designated “synergistic”)”; under setting [8], “Synergistic (Combinations that gave FIC indices less than 1 were designated “synergistic”)”. In addition, the FIC under setting [19] worked out at 0.06 and the FIC under setting [20] is listed as 0.0625.

The values are drawn from patent publication US20190142800A1, “SYNERGISTIC ANTIFUNGAL COMPOSITIONS AND METHODS THEREOF” (VYOME THERAPEUTICS LIMITED, priority 2016, published 2019).
